Test [1] relates to Tumor necrosis factor α (TNFα). In words: In vitro model of human inflammation: ELISA of TNFα in supernatants. Format: cell-based. The note with it: 300 μM; full inflammation (4 h and 14 h); one donor. On the procedure:
(§1) FIG. 16—Glycerophosphoinositol inhibits the release of cytokines. Human monocytes were purified from one donor and treated according to the in vitro model of human inflammation, previously described, in absence (blue line) or in presence (red line) of 300 μM glycerophosphoinositol. In detail, glycerophosphoinositol was added to cultured cells 20 minutes before LPS, IL-10 and TGF-β, that is, again after each wash. The growth medium was collected at time 4 h, 14 h, 24 h, 48 h; growth medium from freshly isolated monocytes was considered as control at time 0 h. The levels of cytokines Interleukin 1β (IL-1β), Tumor necrosis factor α (TNFα) and Interleukin-6 (IL-6) in the supernatants were measured by enzyme-linked immunosorbent assay (ELISA kit, R&D System) according to manufacturer's protocol. An increased release of these cytokines was observed during the full inflammation (time 4 h and 14 h) as expected. […]
(§2) Extracellular levels of IL-1β, TNFα and IL-6 were measured by enzyme-linked immunosorbent assay (ELISA) from R&D System. […] Then the recovered supernatants were loaded onto plates according to manufacturer's protocol and the concentration of the protein was assessed spectrophotometrically.

Test [2] concerns inhibitor of kB, α (IκB-α) gene expression. Briefly: In vitro model of human inflammation: real-time PCR of IκB-α. Format: cell-based. Conditions: 300 μM; 4 h, 14 h, 24 h, 48 h; one donor, preliminary. The method, then: (§3) FIG. 15—Glycerophosphoinositol modulates the kinetic transcriptional profile of genes involved in the regulation of inflammatory response. Human monocytes were purified from one donor and treated according to the in vitro model of human inflammation, previously described, in absence (blue line) or in presence (red line) of 300 μM glycerophosphoinositol. In detail glycerophosphoinositol was added to cells in culture 20 minutes before LPS, IL-10 and TGF-β, that is, again after each wash. Samples were collected at time 4 h, 14 h, 24 h, 48 h; freshly isolated monocytes have been considered as control at time 0 h. Total RNA was extracted from cells by RNeasy kit (Qiagen) and reverse-transcribed to cDNA (QuantiTect Reverse Transcription kit, Qiagen). […] Each sample was measured in triplicate and data were analyzed with Pfaffl methods for comparing relative expression data. The measurement of mRNA expression was expressed as fold-increase over control (time 0 h). […]
(§4) Total RNA was extracted with RNeasy kit (Qiagen) according to the manufacturer's instructions. Both integrity and quality of total RNA were checked by agarose gel electrophoresis and the concentration of each RNA sample was assessed spectrophotometrically. Total RNAs were reverse-transcribed to cDNA (QuantiTect Reverse Transcription kit, Qiagen) with oligo-dT and random primers, according to manufacturer's protocol. […]

The next test deals with TNFα. In words: ELISA of TNFα in medium of LPS-stimulated monocytes. The format is cell-based, human. The note with it: 300 μM. On the procedure:
(§5) FIG. 5—The inhibitory effects of GroPIns are also evident at the protein expression level. Purified monocytes (4×10^3 cells/sample) were pre-incubated for 20 min at 37° C. in the absence and presence of 300 μM GroPIns, and then for a further 5 h and 24 h without or with 0.1 μg/ml LPS from E. coli. At the end of this incubation, the levels of TNFα, IL-1β and TxB-2 in the medium were assessed by ELISA. In monocytes alone, the protein concentrations were under the assay detection limits at both the times. The data are representative of three independent experiments performed with cells from different donors. Exposure of monocytes to LPS induced a time-dependent increase in the […] levels of all of the cytokines analysed.
(§6) Cellular levels of TNFα, IL-1β and TxB-2 were quantified by enzyme-linked immunosorbent assay (ELISA). Conditioned medium from monocytes was sedimented by centrifugation at 300×g at room temperature for 10 min to eliminate cellular debris. Then, the supernatant was recovered and the concentrations of TNFα, IL-1β and TxB-2 were assessed by ELISA, as specified by the manufacturers (Amersham Pharmacia Biotech (NJ, USA).

In the next test the test system is TxB-2. Briefly: ELISA of TxB-2 in medium of LPS-stimulated monocytes. The format is cell-based, human. Conditions: 300 μM. On the procedure:
as §5, §6

Test [3] concerns phospholipase A2IVα (PLA2IVα) gene expression. Briefly: In vitro model of human inflammation: real-time PCR of PLA2IVα. The format is cell-based. Conditions: 300 μM; 4 h, 14 h, 24 h, 48 h; effect mainly at 4 h and 14 h; one donor, preliminary. On the procedure:
as §3, §4

A further test relates to Interleukin-6 (IL-6). Briefly: In vitro model of human inflammation: ELISA of IL-6 in supernatants. Conditions: 300 μM; full inflammation (4 h and 14 h); one donor. The format is cell-based. On the procedure:
as §1, §2

For test [4], the system named is cyclooxygenase 2 (COX-2) gene expression. Briefly: In vitro model of human inflammation: real-time PCR of COX-2. The format is cell-based. Conditions: 300 μM; 4 h, 14 h, 24 h, 48 h; effect mainly at 4 h and 14 h; one donor, preliminary. On the procedure:
as §3, §4

Turning to `O=P(O)(OCC(O)CO)OC1C(O)C(O)C(O)C(O)C1O` (stereo not drawn) [GroPIns, glycerophosphoinositol], in test [1], the “amount of TNFα in the supernatants” value is “significantly reduced the amount of these cytokines in the supernatants”. For the same compound, the “IκB-α mRNA expression” value in test [2] is “affected the expression of IκB-α”. The figures for the “level of TNFα in the medium” value with TNFα (0.1 μg/ml LPS for 5 h) and in the test on TNFα (0.1 μg/ml LPS for 24 h) were “very small effects” and “significantly reduced”, respectively. The figures for the “level of TxB-2 in the medium” value with TxB-2 (0.1 μg/ml LPS for 5 h) and in the test with TxB-2 (0.1 μg/ml LPS for 24 h) were “very small effects” and “significantly reduced”, respectively. In addition, the “PLA2IVα mRNA expression” value in test [3] is “hampered the expression”. The “amount of IL-6 in the supernatants” value in the test with Interleukin-6 (IL-6) was “significantly reduced the amount of these cytokines in the supernatants”. Moreover, the “COX-2 mRNA expression” value in test [4] is recorded as “hampered the expression”.

Values taken from patent publication US9351983B2, “Use of glycerophosphoinositols for the treatment of septic shock” (CONSIGLIO NAZIONALE DELLE RICERCHE, priority 2012, dated 2016).
